Laboratory results reported in PubChem BioAssay (NCI).
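Briefly, cells in 96-well plates were exposed to five compound concentrations for 48 h, and endpoints were estimated by linear interpolation. TGI is the concentration that stops growth completely.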

Columns and labels:
Test in all cases: DTP human tumour cell line panel, 48 h
[1] = tested on: U251 CNS
[2] = tested on: SNB-19 CNS
[3] = tested on: CCRF-CEM leukemia
[4] = tested on: MDA-MB-231 breast
[5] = tested on: HCT-116 colon
[6] = tested on: PC-3 prostate
[7] = tested on: UACC-257 melanoma
[8] = tested on: MALME-3M melanoma
[9] = tested on: RXF 393 renal
[10] = tested on: DU-145 prostate
[11] = tested on: T-47D breast
[12] = tested on: HCC-2998 colon
[13] = tested on: MCF7 breast
[14] = tested on: SN12C renal
[15] = tested on: COLO 205 colon
[16] = tested on: HT29 colon
[17] = tested on: OVCAR-3 ovarian
[18] = tested on: NCI/ADR-RES ovarian
[19] = tested on: KM12 colon
[20] = tested on: SK-OV-3 ovarian
[21] = tested on: SK-MEL-28 melanoma
[22] = tested on: TK-10 renal
[23] = tested on: NCI-H460 lung
[24] = tested on: SR leukemia
[25] = tested on: UACC-62 melanoma
[26] = tested on: NCI-H23 lung
[27] = tested on: NCI-H226 lung
[28] = tested on: K-562 leukemia
[29] = tested on: SF-268 CNS
[30] = tested on: M14 melanoma
[31] = tested on: A549 NSCLC
[32] = tested on: SF-539 CNS
[33] = tested on: SK-MEL-5 melanoma
[34] = tested on: OVCAR-5 ovarian
[35] = tested on: HCT-15 colon
[36] = tested on: IGROV1 ovarian
[37] = tested on: SK-MEL-2 melanoma
[38] = tested on: LOX IMVI melanoma
[39] = tested on: MDA-MB-435
[40] = tested on: HOP-62 NSCLC
[41] = tested on: CAKI-1 renal
[42] = tested on: UO-31 renal
[43] = tested on: A498 renal
[44] = tested on: ACHN renal
[45] = tested on: NCI-H522 lung
[46] = tested on: HL-60(TB) leukemia
[47] = tested on: MOLT-4 leukemia
[48] = tested on: SNB-75 CNS
[49] = tested on: MDA-N
[50] = tested on: RPMI-8226 leukemia
[51] = tested on: SF-295 CNS
[52] = tested on: OVCAR-4 ovarian
[53] = tested on: SW-620 colon
[54] = tested on: 786-0 renal
[55] = tested on: OVCAR-8 ovarian
[56] = tested on: HS 578T breast

Measured: TGI

C=C=C(C)[Si](C)(C)C
> 100 µM: all assays above
